From ChEMBL document CHEMBL5465560, “Selectivity Literature for EUbOPEN Chemogenomic Library” (2024)

Columns and labels:
[1] = target: T1, Protein kinase C iota type (Homo sapiens) (UniProt P41743); assay: Selectivity interaction (Millipore kinase profiler) EUB0000124b PRKCI; details: at 10 µM
T1 sequence (whole entry): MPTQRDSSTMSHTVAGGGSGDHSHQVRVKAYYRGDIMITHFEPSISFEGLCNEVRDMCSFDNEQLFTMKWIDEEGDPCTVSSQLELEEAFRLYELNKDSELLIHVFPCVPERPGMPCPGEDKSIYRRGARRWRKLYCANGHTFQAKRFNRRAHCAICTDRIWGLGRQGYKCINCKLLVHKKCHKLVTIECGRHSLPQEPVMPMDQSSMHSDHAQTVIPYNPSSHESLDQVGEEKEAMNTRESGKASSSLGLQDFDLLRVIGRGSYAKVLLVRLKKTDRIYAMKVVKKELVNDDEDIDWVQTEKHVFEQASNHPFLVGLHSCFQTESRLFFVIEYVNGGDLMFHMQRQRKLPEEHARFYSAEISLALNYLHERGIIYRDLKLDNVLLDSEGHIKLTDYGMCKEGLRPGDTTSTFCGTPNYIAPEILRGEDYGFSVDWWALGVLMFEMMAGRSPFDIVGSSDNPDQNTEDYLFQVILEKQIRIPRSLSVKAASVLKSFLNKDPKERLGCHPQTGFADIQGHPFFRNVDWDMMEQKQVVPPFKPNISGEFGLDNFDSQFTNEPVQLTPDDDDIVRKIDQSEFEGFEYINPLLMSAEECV

[2] = target: Vascular endothelial growth factor receptor 1 (Homo sapiens) (UniProt P17948); assay: Selectivity interaction (Kinase screening (Nanosyn)) EUB0000604a FLT1
[3] = target: RAF proto-oncogene serine/threonine-protein kinase (Homo sapiens) (UniProt P04049); assay: Selectivity interaction (Kinase screening (Upstate/Millipore)) EUB0000604a RAF1
[4] = system: eIF-2-alpha kinase GCN2 (Homo sapiens), Q9P2K8 [S808G]; assay: Selectivity interaction (KinomeScan (DiscoverX)) EUB0001049a EIF2AK4; details: at 1 µM
[5] = target: Insulin receptor (Homo sapiens, UniProt P06213); assay: Selectivity interaction (ActivX KiNativ screen (kinase selectivity in THP-1 cell lysates)) EUB0000639a INSR; format: subcellular; details: lysate
[6] = target: Zinc finger CW-type PWWP domain protein 1 (Homo sapiens) (UniProt Q9H0M4); assay: Selectivity interaction (PWWP, WD40, and Tudor domain panel (DSLS measurements, literature)) EUB0000270b ZCWPW1
[7] = target: Mitogen-activated protein kinase kinase kinase 4 (Homo sapiens) (UniProt Q9Y6R4); details: at 10 µM
[8] = target: Serine/threonine-protein kinase 32B (Homo sapiens) (UniProt Q9NY57); assay: Selectivity interaction (KinomeScan (DiscoverX)) EUB0000595a STK32B; details: at 10 µM
[9] = target: T2, Dual specificity mitogen-activated protein kinase kinase 4 (Homo sapiens) (UniProt P45985); assay: Selectivity interaction (KinomeScan (DiscoverX)) EUB0000229b MAP2K4; details: at 10 µM
T2 sequence (whole entry): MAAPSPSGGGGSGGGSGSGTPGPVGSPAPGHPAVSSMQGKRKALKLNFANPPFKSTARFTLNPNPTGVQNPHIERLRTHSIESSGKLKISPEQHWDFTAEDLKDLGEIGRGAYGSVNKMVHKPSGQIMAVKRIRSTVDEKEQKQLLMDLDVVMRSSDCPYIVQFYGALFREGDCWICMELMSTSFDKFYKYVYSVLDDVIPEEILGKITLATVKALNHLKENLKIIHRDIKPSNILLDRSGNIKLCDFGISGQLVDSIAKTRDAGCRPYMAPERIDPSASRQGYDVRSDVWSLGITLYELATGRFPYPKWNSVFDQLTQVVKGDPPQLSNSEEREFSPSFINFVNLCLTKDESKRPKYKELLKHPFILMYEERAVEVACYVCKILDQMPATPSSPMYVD

[10] = target: Cyclin-dependent kinase 13 (Homo sapiens, UniProt Q14004); assay: Selectivity interaction (KinomeScan (DiscoverX)) EUB0000092b CDK13; details: at 10 µM
[11] = target: Tyrosine-protein kinase CSK (Homo sapiens) (UniProt P41240); assay: Selectivity interaction (KinomeScan (DiscoverX)) EUB0000655a CSK; details: at 10 µM
[12] = target: T3, Serine/threonine-protein kinase Nek11 (Homo sapiens) (UniProt Q8NG66); assay: Selectivity interaction (KinomeScan (DiscoverX)) EUB0000607a NEK11; details: at 10 µM
T3 sequence (whole entry): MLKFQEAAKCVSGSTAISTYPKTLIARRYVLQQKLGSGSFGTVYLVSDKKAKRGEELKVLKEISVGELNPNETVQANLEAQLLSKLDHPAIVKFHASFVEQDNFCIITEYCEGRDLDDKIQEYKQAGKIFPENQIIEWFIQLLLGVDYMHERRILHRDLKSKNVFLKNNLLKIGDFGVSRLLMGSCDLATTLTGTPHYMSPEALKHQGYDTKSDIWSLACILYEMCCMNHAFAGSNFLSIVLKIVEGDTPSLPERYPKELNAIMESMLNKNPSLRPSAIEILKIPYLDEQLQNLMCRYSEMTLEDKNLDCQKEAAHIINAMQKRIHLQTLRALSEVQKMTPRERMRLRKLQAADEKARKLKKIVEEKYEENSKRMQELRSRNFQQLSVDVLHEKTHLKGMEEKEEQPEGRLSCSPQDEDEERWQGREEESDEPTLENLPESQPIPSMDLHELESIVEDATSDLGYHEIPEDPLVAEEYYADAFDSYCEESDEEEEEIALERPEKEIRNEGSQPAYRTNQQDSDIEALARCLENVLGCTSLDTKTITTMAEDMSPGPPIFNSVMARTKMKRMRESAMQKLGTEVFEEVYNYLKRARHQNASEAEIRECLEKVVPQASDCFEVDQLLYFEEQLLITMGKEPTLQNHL

[13] = target: T4, 5-hydroxytryptamine receptor 2C (Homo sapiens) (UniProt P28335); assay: Selectivity interaction (Panel of kinases, GPCRs, ion channels and transporters (enzymatic assay)) EUB0000223bCl HTR2C
T4 sequence (whole entry): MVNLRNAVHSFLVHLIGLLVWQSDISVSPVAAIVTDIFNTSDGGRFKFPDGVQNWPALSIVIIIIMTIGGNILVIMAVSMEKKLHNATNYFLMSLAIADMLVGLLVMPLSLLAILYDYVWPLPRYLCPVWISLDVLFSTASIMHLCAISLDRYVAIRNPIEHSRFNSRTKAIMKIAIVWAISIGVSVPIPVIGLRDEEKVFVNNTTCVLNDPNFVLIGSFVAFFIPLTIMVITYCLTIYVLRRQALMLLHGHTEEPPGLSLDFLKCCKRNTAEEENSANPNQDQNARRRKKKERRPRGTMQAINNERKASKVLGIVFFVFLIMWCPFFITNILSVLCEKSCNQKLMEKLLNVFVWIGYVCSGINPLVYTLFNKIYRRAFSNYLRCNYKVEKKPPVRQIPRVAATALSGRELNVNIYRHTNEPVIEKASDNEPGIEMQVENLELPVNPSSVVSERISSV

Chain of Insulin receptor (P06213 28-758 limits assumed): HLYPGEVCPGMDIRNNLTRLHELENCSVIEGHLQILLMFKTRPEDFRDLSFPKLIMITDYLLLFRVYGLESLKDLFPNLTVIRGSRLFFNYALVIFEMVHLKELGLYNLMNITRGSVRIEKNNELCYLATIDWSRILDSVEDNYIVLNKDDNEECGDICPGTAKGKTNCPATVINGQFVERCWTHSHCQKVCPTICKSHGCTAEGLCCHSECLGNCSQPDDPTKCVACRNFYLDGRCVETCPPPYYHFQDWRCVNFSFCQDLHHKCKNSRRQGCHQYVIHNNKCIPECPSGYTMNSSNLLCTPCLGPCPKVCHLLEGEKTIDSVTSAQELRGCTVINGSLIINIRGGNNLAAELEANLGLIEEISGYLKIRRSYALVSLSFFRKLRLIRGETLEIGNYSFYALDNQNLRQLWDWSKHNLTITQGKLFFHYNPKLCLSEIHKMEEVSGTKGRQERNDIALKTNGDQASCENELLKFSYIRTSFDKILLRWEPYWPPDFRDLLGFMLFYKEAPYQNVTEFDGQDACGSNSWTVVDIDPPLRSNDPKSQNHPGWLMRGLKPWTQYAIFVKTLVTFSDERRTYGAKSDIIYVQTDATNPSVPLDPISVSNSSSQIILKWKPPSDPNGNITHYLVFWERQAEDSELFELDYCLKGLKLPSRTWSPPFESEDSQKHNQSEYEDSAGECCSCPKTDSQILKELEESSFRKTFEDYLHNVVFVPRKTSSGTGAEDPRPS
Chain of Insulin receptor (P06213 763-1382 limits assumed): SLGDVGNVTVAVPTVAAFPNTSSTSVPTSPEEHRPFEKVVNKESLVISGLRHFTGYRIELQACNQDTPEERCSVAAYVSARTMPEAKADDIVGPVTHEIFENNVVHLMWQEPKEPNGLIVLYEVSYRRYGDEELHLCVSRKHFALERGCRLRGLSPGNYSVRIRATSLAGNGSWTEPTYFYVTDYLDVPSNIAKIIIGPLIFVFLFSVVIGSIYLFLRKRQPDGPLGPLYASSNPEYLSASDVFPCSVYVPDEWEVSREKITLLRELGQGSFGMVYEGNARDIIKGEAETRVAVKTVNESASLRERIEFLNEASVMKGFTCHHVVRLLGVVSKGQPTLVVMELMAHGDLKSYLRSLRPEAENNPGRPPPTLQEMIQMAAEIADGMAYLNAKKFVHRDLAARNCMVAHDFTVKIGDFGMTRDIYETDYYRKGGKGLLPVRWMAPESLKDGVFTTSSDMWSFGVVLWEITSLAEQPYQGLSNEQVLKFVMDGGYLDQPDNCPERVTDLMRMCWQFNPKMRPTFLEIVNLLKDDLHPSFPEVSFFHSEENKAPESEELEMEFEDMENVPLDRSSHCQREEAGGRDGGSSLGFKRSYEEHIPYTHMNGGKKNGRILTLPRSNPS
Chain of Vascular endothelial growth factor receptor 1 (Homo sapiens) (P17948 whole entry): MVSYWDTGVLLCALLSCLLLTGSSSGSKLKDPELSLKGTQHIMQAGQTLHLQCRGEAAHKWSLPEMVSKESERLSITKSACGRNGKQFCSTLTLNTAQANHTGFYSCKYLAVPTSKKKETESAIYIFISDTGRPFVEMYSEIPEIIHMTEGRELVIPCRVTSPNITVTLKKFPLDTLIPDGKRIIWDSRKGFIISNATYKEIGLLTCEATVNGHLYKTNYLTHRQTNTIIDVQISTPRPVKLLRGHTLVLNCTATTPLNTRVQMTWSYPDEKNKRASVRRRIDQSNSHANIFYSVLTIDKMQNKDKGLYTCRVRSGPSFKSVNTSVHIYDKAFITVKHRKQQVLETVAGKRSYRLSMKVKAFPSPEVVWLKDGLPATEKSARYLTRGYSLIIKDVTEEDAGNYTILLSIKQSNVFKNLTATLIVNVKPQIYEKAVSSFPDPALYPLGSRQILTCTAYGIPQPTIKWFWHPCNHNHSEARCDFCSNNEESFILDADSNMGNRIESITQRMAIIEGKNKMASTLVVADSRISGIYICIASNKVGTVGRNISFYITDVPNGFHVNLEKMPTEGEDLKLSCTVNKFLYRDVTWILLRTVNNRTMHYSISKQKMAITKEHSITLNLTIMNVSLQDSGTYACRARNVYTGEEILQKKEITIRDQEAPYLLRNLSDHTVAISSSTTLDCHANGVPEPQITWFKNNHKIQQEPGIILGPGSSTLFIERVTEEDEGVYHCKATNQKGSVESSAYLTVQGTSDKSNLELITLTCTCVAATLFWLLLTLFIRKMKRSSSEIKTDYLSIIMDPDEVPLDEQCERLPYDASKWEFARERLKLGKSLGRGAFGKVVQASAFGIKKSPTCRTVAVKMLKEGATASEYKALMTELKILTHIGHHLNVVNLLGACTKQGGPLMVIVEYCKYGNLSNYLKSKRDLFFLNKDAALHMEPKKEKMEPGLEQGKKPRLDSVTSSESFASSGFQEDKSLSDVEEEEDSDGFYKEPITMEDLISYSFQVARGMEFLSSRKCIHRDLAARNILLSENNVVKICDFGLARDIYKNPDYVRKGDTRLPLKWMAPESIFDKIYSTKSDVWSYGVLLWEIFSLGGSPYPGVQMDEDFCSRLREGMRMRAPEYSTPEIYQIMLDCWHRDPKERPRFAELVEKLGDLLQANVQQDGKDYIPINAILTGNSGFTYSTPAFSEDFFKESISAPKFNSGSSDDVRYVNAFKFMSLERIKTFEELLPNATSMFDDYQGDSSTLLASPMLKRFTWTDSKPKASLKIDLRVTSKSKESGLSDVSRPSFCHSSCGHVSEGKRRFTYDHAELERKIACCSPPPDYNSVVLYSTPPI
Chain of eIF-2-alpha kinase GCN2 (Homo sapiens), Q9P2K8 [S808G] (Q9P2K8 whole entry S808G): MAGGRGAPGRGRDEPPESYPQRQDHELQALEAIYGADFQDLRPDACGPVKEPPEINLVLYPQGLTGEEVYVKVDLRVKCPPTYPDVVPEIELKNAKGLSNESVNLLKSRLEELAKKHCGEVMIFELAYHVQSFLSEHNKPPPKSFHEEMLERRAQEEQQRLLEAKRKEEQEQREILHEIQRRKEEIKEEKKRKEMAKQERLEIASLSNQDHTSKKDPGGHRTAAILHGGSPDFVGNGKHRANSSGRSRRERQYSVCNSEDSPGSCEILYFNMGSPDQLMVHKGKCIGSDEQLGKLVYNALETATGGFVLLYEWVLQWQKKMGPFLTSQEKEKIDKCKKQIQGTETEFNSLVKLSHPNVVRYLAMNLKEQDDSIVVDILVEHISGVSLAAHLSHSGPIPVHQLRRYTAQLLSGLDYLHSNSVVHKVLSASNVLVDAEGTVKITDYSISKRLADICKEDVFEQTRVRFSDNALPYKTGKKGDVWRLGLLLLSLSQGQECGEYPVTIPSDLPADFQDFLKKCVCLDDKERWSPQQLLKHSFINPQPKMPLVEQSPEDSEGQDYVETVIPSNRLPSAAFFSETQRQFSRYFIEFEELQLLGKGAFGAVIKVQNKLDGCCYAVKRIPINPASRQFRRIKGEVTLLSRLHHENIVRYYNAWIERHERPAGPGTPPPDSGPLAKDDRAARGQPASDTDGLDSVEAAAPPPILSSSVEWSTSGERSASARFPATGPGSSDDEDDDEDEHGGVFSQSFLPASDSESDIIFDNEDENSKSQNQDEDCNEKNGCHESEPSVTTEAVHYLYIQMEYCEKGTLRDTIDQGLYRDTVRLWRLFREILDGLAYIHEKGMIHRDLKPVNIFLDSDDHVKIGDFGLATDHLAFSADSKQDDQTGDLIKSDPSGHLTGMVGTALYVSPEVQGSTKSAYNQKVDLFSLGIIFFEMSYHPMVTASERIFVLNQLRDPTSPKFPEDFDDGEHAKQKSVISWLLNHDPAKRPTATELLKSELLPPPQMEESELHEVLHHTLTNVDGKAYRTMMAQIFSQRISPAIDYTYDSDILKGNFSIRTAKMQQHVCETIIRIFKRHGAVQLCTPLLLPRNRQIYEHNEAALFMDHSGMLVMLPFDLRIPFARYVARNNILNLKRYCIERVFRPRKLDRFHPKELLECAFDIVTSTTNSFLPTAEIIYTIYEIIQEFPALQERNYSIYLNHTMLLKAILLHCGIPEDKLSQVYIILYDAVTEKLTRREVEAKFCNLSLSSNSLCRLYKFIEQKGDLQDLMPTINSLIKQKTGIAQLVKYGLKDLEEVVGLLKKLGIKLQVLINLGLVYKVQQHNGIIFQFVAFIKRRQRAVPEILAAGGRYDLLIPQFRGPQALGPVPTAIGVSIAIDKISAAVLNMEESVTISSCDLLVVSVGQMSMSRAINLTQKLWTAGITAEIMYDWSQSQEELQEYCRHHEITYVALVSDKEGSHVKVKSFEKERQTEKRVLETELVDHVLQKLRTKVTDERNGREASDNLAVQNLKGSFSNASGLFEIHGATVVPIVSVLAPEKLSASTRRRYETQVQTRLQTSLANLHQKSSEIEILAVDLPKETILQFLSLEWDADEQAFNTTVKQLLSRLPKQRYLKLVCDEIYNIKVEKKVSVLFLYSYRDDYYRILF
Chain of Zinc finger CW-type PWWP domain protein 1 (Homo sapiens) (Q9H0M4 whole entry, the tested form may be a part): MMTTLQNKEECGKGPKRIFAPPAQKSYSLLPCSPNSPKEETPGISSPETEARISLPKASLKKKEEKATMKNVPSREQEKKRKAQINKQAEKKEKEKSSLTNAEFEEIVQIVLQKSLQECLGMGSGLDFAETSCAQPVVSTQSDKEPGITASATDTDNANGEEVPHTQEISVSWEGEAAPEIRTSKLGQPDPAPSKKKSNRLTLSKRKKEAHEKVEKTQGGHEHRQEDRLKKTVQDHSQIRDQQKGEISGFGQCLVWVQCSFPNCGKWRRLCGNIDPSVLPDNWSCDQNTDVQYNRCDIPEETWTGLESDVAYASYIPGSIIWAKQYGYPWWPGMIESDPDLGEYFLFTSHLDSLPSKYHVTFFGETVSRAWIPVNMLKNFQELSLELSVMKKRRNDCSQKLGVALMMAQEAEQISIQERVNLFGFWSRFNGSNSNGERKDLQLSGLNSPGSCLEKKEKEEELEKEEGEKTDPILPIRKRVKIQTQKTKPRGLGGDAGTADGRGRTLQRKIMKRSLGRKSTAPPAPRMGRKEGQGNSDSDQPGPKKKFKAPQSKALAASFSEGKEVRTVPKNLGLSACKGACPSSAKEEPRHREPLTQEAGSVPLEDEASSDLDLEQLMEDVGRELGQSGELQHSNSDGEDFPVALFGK

Structure (SMILES): CC(=O)Nc1cccc(-n2c(=O)n(C3CC3)c(=O)c3c(Nc4ccc(I)cc4F)n(C)c(=O)c(C)c32)c1
- % of control [1]: 83%

Structure (SMILES): Cc1cnc(Nc2ccc(F)cc2Cl)nc1-c1c[nH]c(C(=O)N[C@H](CO)c2cccc(Cl)c2)c1
- % of inhibition [2]: 0%
- % of inhibition [3]: 3%

Structure (SMILES): COc1cc(Nc2nc(C)cc(-c3cnn4nc(OC)ccc34)n2)cc(C(F)(F)F)c1
- % of control [4]: 100%

Structure (SMILES): CC[C@@H]1[C@H](F)C(=O)N[C@@H]1COc1nccc2cc(C(N)=O)c(OC)cc12 [ZIMLOVISERTIB]
- % of inhibition ([5]; at 0.01 µM): -44.7%
- % of inhibition ([5]; at 0.04 µM): 10.7%
- % of inhibition ([5]; at 0.2 µM): -15.5%
- % of inhibition ([5]; at 1 µM): -21.5%
- % of inhibition ([5]; at 5 µM): -37.4%

Structure (SMILES): Cc1cc(CN)cc(C)c1-c1ncn(C)c1-c1cncn1C
- dTagg [6]: 0 K

Structure (SMILES): CCN(CC)CCCCNc1ncc2cc(-c3cc(OC)cc(OC)c3)c(NC(=O)NC(C)(C)C)nc2n1
- % of control [7]: 100%

Structure (SMILES): COCC(=O)NC/C=C/c1ccc2ncnc(Nc3ccc(Oc4ccc(C)nc4)c(C)c3)c2c1 [CP-724714]
- % of control [8]: 92%

Structure (SMILES): COc1cc(N(C)c2ccnc3ccc(C(F)(F)F)cc23)cc(OC)c1OC
- % binding [9]: 100%

Structure (SMILES): CCC(=O)N1CCN(c2ccc(-n3c(=O)ccc4cnc5ccc(-c6cnc7ccccc7c6)cc5c43)cc2C(F)(F)F)CC1
- % of control [10]: 80%

Structure (SMILES): CN(C)CCOc1ccc(-c2nc(-c3ccncc3)c(-c3ccc4c(c3)CC/C4=N\O)[nH]2)cc1
- % of control [11]: 97%

Structure (SMILES): CNC(=O)Nc1ccc(-c2nc(N3CC4CCC(C3)O4)c3cnn(C4CCC5(CC4)OCCO5)c3n2)cc1
- % of control [12]: 99%

Structure (SMILES): COc1cc(C(=O)N2CC[C@@H](O)[C@@H](N)C2)cc2nc(-c3cc4ccccc4n3CC3CC3)n(C)c12
- pXC50 [13]: < 4.4 M
